Laboratory results published in US20050148630A1, “Methods of preventing and treating non-opioid induced gastrointestinal dysfunction” (priority 2003, published 2005).

Experiments:
healthy volunteers = assay: Ascending dose level safety study (Phase I) of alvimopan, TID for 4 days; assay type: in vivo
Description: This was an ascending dose level safety study (Phase I) intended to determine the frequency and severity of adverse events (AEs) and to estimate the maximum tolerated dose of alvimopan. Subjects were screened to ensure their status as healthy volunteers. They were only enrolled if they had no clinically significant abnormalities on history, physical, or laboratory examinations. Post study physical examination and laboratory tests, including serum chemistries and complete blood count, were performed.
Alvimopan or placebo was administered TID for 4 days.
One subject in each dose group was randomly assigned to receive placebo that was identical in appearance to the active study medication.
Forty-four subjects were randomized for treatment. One subject at each dose level received placebo (N=5); the rest received alvimopan. […] The incidence of gastrointestinal AEs increased with increasing dose of alvimopan. One or more incidence of mild or moderate “abdominal pain” was reported by 83-100% of subjects receiving 18 or 54 mg daily doses (6 or 18 mg TID), but was infrequent at lower doses (range 11-18%). One or more incidence of diarrhea was reported by 83% of subjects receiving 54 mg daily doses (18 mg TID), but was infrequent at lower doses (range 9-22%). One or more incidence of flatulence was reported by 50-78% of subjects receiving 18 or 54 mg daily doses (6 or 18 mg TID), but was less frequent at lower doses (range 18-33%). One subject receiving the highest dose, 54 mg/day (18 mg TID), withdrew during the second day of dosing due to adverse events of abdominal pain, nausea, and diarrhea.

[1] = test system: subjects with functional constipation; assay: Oral-cecal transit time, lactulose hydrogen breath test, cross-over study; assay type: in vivo, human; details: 3 mg BID, Day 7, lactulose hydrogen breath test
Description: (§1) Subjects underwent measurement of their whole bowel transit (radio-opaque markers) and oral-cecal transit (hydrogen-breath test) prior to receiving the first treatment (baseline) and at the end of each treatment period. During the screening and treatment periods, subjects recorded the time of each bowel movement (defecatory frequency), an assessment of each stool's consistency (using the Bristol Stool Form Scale), and an overall rating of their satisfaction with their bowel movements over each period (1-5 scale: 1=much worse than usual, 2=worse than usual, 3=no change, 4=better than usual, 5=much better than usual). Stool output per 7-day period was calculated from the weight of all stools collected during each treatment period (stools collected over the 7-day assessment period).
The transit time for mouth to cecum, a reflection of small bowel transit, was measured utilizing the hydrogen breath test. […] The time between ingestion of lactulose (10 g) and the sustained increase in hydrogen in the breath (hydrogen concentration in end-expiratory breath samples as measured by gas chromatography) represents the oral-cecal transit time (OCTT). […] Breath samples were measured every 15 minutes following ingestion of the lactulose. Transit time was determined by the first time of three consecutive samples in which there was at least a doubling of the baseline breath hydrogen concentration. […]

[2] = test system: subjects with functional constipation; assay: Safety and tolerability in the cross-over study; assay type: in vivo, human; details: 3 mg BID for 7 days
Description: Subjects were given a physical examination, vital signs, and blood and urine samples obtained for safety laboratory studies at the conclusion of their last treatment period. Any abnormal findings were followed until resolution.
(§2) This single-center, randomized, placebo-controlled, crossover trial was designed to determine the effect of alvimopan on bowel transit of patients with chronic constipation. Whole bowel transit (WBT), bowel movement frequency as total bowel movement (BM), and spontaneous complete BM (SCBM), BM symptoms of straining, discomfort, and satisfaction were compared between placebo and alvimopan (3 mg BID) for 7 days. Safety and tolerability were assessed.

[3] = test system: subjects with functional constipation; assay: Bowel movement frequency and symptoms by patient self-report diary card, cross-over study; assay type: in vivo, human
Description: as §1
Each treatment period comprised seven days of dosing (oral alvimopan 3 mg or matching placebo, given at 8:00 AM and 8:00 PM). For each defecation, subjects recorded the time, date, and stool form (Bristol Stool Form Criteria) (Heaton, et al., Gut, 1991, 73-79). Subjects rated their overall satisfaction with their bowel movements for the treatment period on Day 7.
For Day 1 of each treatment period, the following procedures were conducted in the clinic prior to the morning dosing: a urine drug screen, and a urine/serum pregnancy test (when applicable), semi-supine (i.e., 45-degree angle, pillow, etc.) blood pressure and pulse rate measurements and recording of baseline signs and symptoms. All subjects received their first dose of alvimopan 3 mg or placebo after a light breakfast in the clinic at approximately 8 AM in the morning and according to the randomization schedule. Each dose of alvimopan or placebo was taken with 240 ml of still room-temperature water at each dosing occasion. Subjects were then dispensed the study drug to be taken until the evening dose on Day 5, as well as the Stizmark capsules containing the radio-opaque markers and discharged. Subjects were admitted to the study unit on the evening of Day 5 until completion of the transit studies on Day 7. They were asked to complete a medication diary with the times of morning and evening dosing as an outpatient, as well as any symptoms they experienced at home. Subjects collected all stools from Days 1 to 7. Subjects recorded the time, date, and stool form (Bristol Stool Form Criteria) (Heaton, et al., Gut, 1991, 73-79) for each defecation. Subjects rated their overall satisfaction with their bowel movements for the treatment period on Day 7.
as §2
(§3) The following were performed for each test arm: WBT estimated by a weighted sum of retained radio-opaque markers (based on number and location in the colon on single x-ray 48 hours post marker ingestion) and mean colonic transit time (MCTT) calculated by the method of Metcalf et al., Gastroenterology, 1987, 92: 40-47; and bowel movement frequency (BMF) and symptoms by patient self-report diary card.

[4] = test system: subjects with functional constipation; assay: Whole bowel transit (radio-opaque markers) and mean colonic transit time, placebo-controlled cross-over study; assay type: in vivo, human; details: 3 mg BID for 7 days
Procedure: A single-center, placebo-controlled, randomized, double-blind, balanced two period cross-over study of the effect of alvimopan on GI transit in subjects with functional constipation was carried out.
Subjects (n=24) meeting the initial screening criteria for functional constipation by history, and who had 3 or fewer stools during a 7-day screening period, were randomly assigned to receive initially either orally-administered alvimopan, 3 mg twice daily for 7 days or matching placebo. Following a two- to four-week washout period, subjects received the opposite treatment for a 7-day period.
as §1
Whole bowel transit was determined by using a modification of the radio-opaque marker method developed by Metcalf et al., Gastroenterology, 1987, 92: 40-47. This method is reproducible and correlates well with scintigraphic methods of measuring colonic transit (Degen, et al., Gut, 1996, 39: 299-305). Subjects ingested, at 8:00 AM on the mornings of Days 3, 4, 5, one capsule containing 24 radio-opaque markers (Sitzmark; Konsyl Pharmaceuticals, Fort Worth, Tex.). Stools from Days 3 to 7 were collected and examined by x-ray for the presence of the radio-opaque markers. […] Weights were assigned to the six locations in the colon and a weighted average of the number of radio-opaque markers in the colon was calculated. […]
This single-center, randomized, placebo-controlled, crossover trial was designed to determine the effect of alvimopan on bowel transit of patients with chronic constipation. […] Safety and tolerability were assessed.
as §3

Solubility in water = assay type: physicochemical; details: except at low or high pH conditions
[5] = 18 or 54 mg daily doses (6 or 18 mg TID)

## C[C@H]1CN(C[C@H](Cc2ccccc2)C(=O)NCC(=O)O)CC[C@@]1(C)c1cccc(O)c1 [alvimopan, [[(2S)-2-[[(3R,4R)-4-(3-hydroxyphenyl)-3,4-dimethylpiperidin-1-yl]methyl]-3-phenylpropanoyl]amino]acetic acid dihydrate]
Healthy volunteers; 54 mg daily doses (18 mg TID)
  subjects reporting one or more incidence of diarrhea: 83%
Healthy volunteers; 54 mg/day (18 mg TID), second day of dosing
  subjects withdrawn due to adverse events of abdominal pain, nausea, and diarrhea: One
Healthy volunteers; [5]
  subjects reporting one or more incidence of flatulence: 50-78%
  subjects reporting one or more incidence of mild or moderate abdominal pain: 83-100%
Healthy volunteers; doses up to 54 mg daily (18 mg TID) for 4 days
  tolerability: generally well tolerated
Healthy volunteers; lower doses
  subjects reporting one or more incidence of diarrhea: 9-22%
  subjects reporting one or more incidence of flatulence: 18-33%
  subjects reporting one or more incidence of mild or moderate abdominal pain: 11-18%
[1]
  OCTT v. placebo: not changed
[2]
  incidence of GI-related adverse effects versus placebo arm: slightly higher
[2]; both arms
  severity of adverse events: generally mild
[2]; either treatment arm
  premature discontinuation due to an adverse effect: No subjects prematurely discontinued
[3]; 3 mg BID for 7 days
  BM consistency compared to placebo: improved
  BM discomfort compared to placebo: improved
  BM satisfaction compared to placebo: improved
  BM straining compared to placebo: improved
[3]; 3 mg BID over 7 days, placebo 0.3
  mean increase above baseline for SCBM: 0.6
[3]; 3 mg BID over 7 days, placebo 0.5
  mean increase above baseline for BMF: 1.0
[3]; FIG. 2, 3 mg BID for 7 days
  mean bowel movement Bristol Stool Form Scale score: increased
[3]; FIG. 3, 3 mg BID for 7 days
  % of bowel movements with no/mild straining or discomfort: increased
[4]
  reduction in MCTT versus placebo: 19%
[4]; p<0.049
  reduction in weighted sum of retained radio-opaque markers (faster whole bowel transit) versus placebo: 32%
[4]; placebo 69±5
  mean colonic transit time (MCTT): 56 ± 6 h
[4]; placebo 160±17
  WBT, weighted sum of retained radio-opaque markers: 109±17 WSM
Solubility in water
  solubility in water: low solubility
